Assay results as given in patent US9944654B2, “Nargenicin compounds and uses thereof as antibacterial agents” (priority 2014, dated 2018).
Values after ≈ are worked out from the molar mass of the structure shown. Like-named read-outs stand apart in the source and are kept apart here.

Tests used:
[1] = biological target: T1, E. coli DnaE (DNA polymerase III α-subunit from Escherichia coli) (Escherichia coli, UniProt P10443); experiment: In vitro DnaE single enzyme assay (E. coli); format: biochemical
T1 construct: EcDnaE (E. coli DnaE residues 1-1160); 6xHis (N); made in house; host or cells: E. coli BL21(DE3)
T1 sequence (P10443 whole entry, the tested form may be a part): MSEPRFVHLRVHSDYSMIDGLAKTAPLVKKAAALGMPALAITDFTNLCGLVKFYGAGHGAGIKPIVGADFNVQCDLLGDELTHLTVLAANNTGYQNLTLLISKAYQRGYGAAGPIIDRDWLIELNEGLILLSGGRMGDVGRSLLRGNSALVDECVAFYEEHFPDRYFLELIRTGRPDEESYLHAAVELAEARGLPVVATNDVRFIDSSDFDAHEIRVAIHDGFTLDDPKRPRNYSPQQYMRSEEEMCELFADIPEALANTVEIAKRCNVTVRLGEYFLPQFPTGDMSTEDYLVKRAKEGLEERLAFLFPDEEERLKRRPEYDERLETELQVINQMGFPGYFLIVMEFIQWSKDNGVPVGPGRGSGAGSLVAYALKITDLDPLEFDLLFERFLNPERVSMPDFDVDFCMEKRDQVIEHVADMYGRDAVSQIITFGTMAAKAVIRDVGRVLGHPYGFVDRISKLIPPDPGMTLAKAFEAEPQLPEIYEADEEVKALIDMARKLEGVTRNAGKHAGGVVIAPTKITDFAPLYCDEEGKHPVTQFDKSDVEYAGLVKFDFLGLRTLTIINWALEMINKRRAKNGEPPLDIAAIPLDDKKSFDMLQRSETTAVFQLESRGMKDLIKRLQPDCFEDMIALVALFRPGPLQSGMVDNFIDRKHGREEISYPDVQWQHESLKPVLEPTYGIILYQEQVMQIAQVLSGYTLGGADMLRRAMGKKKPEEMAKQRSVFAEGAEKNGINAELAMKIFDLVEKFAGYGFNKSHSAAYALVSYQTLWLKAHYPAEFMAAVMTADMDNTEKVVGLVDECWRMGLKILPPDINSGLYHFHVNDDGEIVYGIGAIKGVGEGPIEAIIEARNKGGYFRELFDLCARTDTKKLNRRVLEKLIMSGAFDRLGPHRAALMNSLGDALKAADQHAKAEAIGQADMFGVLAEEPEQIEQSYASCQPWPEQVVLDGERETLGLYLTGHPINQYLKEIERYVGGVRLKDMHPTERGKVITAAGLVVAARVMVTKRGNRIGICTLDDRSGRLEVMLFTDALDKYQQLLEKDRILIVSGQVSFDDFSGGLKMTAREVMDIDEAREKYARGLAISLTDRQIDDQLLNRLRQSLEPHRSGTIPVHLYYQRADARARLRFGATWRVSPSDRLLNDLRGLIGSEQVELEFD
Method: (§1) Plasmids encoding EcDnaE (E. coli DnaE residues 1-1160) and SaDnaE (S. aureus DnaE residues 1-1065) with 6×His N-terminal tags, were overexpressed in BL21(DE3) and BL21-AI cells (Invitrogen), respectively. Cells were grown in LB media to an OD ˜0.45 pelleted and then resuspended in Minimal Media, as described in Pryor et al. (1997, Protein Expr Purif. 10:309-19), and inducer (0.4 mM IPTG or 0.2% arabinose) for 21 hours at 18° C. at 220 rpm. Cells were then harvested, frozen for 20 minutes at −80° C. and thawed. Pellets were resuspended in 1× Talon buffer (50 mM Sodium Phosphate, 300 mM Sodium Chloride, pH 7.4) +10% glycerol +Roche PI's (-EDTA). Cells were lysed with two passes through a French press, then centrifuged for 45 minutes at 40,000 rpm (70Ti, Beckman). Supernatant was bound to 5 mL TALON resin (CLONTECH) for 1 hour at room temperature on Nutator. TALON resin was washed with 10 mM imidizole, and DnaE was eluted with 250 mM imidizole. Eluate was concentrated and run on a size exclusion column (SEC200, GE Healthcare) in the following buffer; 25 mM HEPES, 30 mM NaCl,1 mM CaCl2, 5% glycerol, pH 7.9. Pool SEC fractions based on SDS-PAGE run, aliquot, freeze, and store at -80° C.
(§2) DnaE was diluted in 50 mM potassium phosphate pH 7.5, 5 mM BME, 10% glycerol and 200 mM NaCl prior to use.
(§3) The purpose of the DnaE single enzyme assay is to determine the ability of compounds to inhibit the DNA polymerase III α-subunit homolog from Staphylococcus aureus or the α-subunit from Escherichia coli without the other components of the replication machinery. The DnaE single enzyme assay was a modified version of the method, Standard Pol III Assay Using Activated DNA and Four dNTPs, described by Butler et al., 2008, Methods in Molecular Medicine: New Antibiotic Targets 142:25-36. Briefly, in 96-well plates, enzyme was added to a mixture containing 30 mM Tris-HCl pH 7.5, 20% glycerol, 4 mM DTT, 10 mM Mg acetate, 0.025 mM dATP, 0.025 mM dGTP, 0.025 mM dc:TP, 0.011 mM ^3H-dTTP 1 mCi/ml (Perkin-Elmer), and 0.298 mg/mL Dnase I (Sigma) treated “activated” Calf Thymus DNA (Worthington Biochemical). The assay was set up so that 5 μl of compound was distributed to the plates, 90 μl of reaction mix was added to the compound, and 5 μl of enzyme was added to start the reaction. Assays were initiated by the addition of 0.8 μg/ml E. coli or 0.05 μg/ml S. aureus DnaE, incubated for 30 min at 30° C., and terminated by the addition of a 20% trichloroacetic acid and 0.2% sodium pyrophosphate solution. Precipitated labeled DNA was collected on Glass-fiber Filtermat A using Micro96 Harvester, and the filters were washed, dried, and counted in a Microbeta Trilux (Perkin Elmer). Serial dilutions of compounds (in DMSO) were added to the plates before enzyme addition.

[2] = biological target: T2, S. aureus DnaE (DNA polymerase III α-subunit homolog from Staphylococcus aureus) (Staphylococcus aureus, UniProt Q5HF71); experiment: biochemical; format: biochemical
T2 construct: SaDnaE (S. aureus DnaE residues 1-1065); 6xHis (N); made in house; host or cells: E. coli BL21-AI
T2 sequence (Q5HF71 1-1065): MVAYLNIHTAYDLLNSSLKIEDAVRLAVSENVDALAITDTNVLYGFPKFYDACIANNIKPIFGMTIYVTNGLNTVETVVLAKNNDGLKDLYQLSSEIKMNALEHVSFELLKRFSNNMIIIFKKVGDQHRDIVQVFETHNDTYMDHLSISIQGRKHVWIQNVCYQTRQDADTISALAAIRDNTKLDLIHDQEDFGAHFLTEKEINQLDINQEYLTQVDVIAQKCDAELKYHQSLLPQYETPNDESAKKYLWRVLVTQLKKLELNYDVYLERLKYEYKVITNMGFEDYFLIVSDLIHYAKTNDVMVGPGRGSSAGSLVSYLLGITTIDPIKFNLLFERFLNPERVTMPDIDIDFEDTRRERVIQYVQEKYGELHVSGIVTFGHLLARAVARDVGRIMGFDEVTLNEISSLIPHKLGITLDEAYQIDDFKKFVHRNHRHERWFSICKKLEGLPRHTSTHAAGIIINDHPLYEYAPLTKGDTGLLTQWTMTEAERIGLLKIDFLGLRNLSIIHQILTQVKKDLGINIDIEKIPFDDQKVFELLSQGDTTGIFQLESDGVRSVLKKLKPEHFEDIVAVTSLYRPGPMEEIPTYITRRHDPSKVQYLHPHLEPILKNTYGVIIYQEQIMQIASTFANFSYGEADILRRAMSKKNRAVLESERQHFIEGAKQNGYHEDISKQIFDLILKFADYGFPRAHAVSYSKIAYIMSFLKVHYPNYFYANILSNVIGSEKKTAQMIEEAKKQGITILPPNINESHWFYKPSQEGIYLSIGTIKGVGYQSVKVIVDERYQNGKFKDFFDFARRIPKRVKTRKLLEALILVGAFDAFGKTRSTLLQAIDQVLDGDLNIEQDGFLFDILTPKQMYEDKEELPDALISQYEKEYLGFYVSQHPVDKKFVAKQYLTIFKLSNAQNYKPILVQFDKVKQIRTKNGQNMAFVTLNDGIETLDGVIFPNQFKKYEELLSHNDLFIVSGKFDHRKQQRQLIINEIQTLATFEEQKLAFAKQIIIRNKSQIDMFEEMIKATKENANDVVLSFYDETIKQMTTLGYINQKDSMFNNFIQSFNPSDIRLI
Method: as §1, §2, §3

[3] = system: Escherichia coli MB5747 (LS 883, tolC); experiment: microbe, parasite or virus in culture; format: cell-based; details: * = some reduction of growth versus control at […]; for MIC: Escherichia coli, read-out: E. coli LS883 tolC (MIC), MHII broth
[4] = system: Pseudomonas aeruginosa MB5890 (CB1101, efflux-deleted); experiment: microbe, parasite or virus in culture; format: cell-based; details: * = some reduction of growth versus control at […]; for MIC: Pseudomonas aeruginosa, read-out: P. aeruginosa MB5890 efflux-del (MIC), MHII broth
[5] = system: Streptococcus pneumoniae MB6357 (CL 2883); experiment: Nargenicin antibacterial assay (MIC), S. pneumoniae; format: cell-based; details: for MIC: Streptococcus pneumoniae, read-out: S. pneumoniae MB2883 (MIC)
[6] = read-out: S. aureus DnaE IC50 (converted)

Compound | IC50 ([1]; E. coli DnaE IC50) [µM] | IC50 [2, 6] [nM] | MIC [3] [µg/mL] | MIC [4] [µg/mL] | MIC [5] [µg/mL] | IC50 ([1]; read-out: E. coli DnaE IC50 (converted)) [µM] | IC50 ([2]; read-out: S. aureus DnaE IC50) [nM] | E. coli LS883 tolC (MIC) ([3]; MHII broth) [µg/mL] | P. aeruginosa MB5890 efflux-del (MIC) ([4]; MHII broth) [µg/mL] | S. pneumoniae MB2883 (MIC) ([5]; Isosensitest broth, * = some reduction of growth versus control at […]) [µg/mL] | IC50 ([2]; S. aureus DnaE IC50) [nM]
CO[C@H]1CC2C=C[C@H]3[C@H]4O[C@]2(/C(C)=C/[C@@H](C)[C@@H]([C@@H](C)OC(=O)NC(CO)(CO)CO)OC1=O)[C@@H]3[C@H](O)[C@@H](C)[C@H]4OC(=O)c1ccc[nH]1 (stereo partly shown) [Example 22] | > 151 | < 9.05 | 4 (≈ 6.04 µM) | 64 (≈ 96.6 µM) | 64 (≈ 96.6 µM) |  |  |  |  |  | 
CO[C@H]1CC2C=C[C@H]3[C@H]4O[C@]2(/C(C)=C/[C@@H](C)[C@@H]([C@@H](C)OC(=O)OC2CCC(O)CC2)OC1=O)[C@@H]3[C@H](O)[C@@H](C)[C@H]4OC(=O)c1ccc[nH]1 (single isomer, unassigned) [Example 35] |  |  |  |  |  | > 76 | 10.6 | 32 | >128 | 64 | 
CO[C@H]1C[C@H]2C=C[C@H]3[C@H]4O[C@]2(/C(C)=C/[C@@H](C)[C@@H]([C@@H](C)O)OC1=O)[C@@H]3[C@H](O)[C@@H](C)[C@H]4OCc1ccsc1 [Example 184] | 75.2 | 77.1 | 8 (≈ 15.4 µM) | 64 (≈ 123 µM) | 64 (≈ 123 µM) |  |  |  |  |  | 
CO[C@H]1C[C@H]2C=C[C@H]3[C@H]4O[C@]2(/C(C)=C/[C@@H](C)[C@@H]([C@@H](C)O)OC1=O)[C@@H]3[C@H](O)[C@@H](C)[C@H]4OC(=O)c1ccsc1 [Example 183] | 9.76 | < 11.3 | 1 (≈ 1.88 µM) | 16 (≈ 30 µM) | 64 (≈ 120 µM) |  |  |  |  |  | 
CO[C@H]1C[C@H]2C=CC3C4[C@H](O)[C@@H](C)[C@@H](OC(=O)c5ccc[nH]5)[C@@H]3O[C@]42/C(C)=C/[C@@H](C)[C@@H]([C@@H](C)OC(=O)C(=O)OCCN(C)C)OC1=O.O=C(O)C(F)(F)F [Example 205] | 7.76 | < 7.76 | 2 | 64 | > 128 |  |  |  |  |  | 
CO[C@H]1CC2C=C[C@H]3[C@H]4O[C@]2(/C(C)=C/[C@@H](C)[C@@H]([C@@H](C)OC(=O)OCCCO)OC1=O)[C@@H]3[C@H](O)[C@@H](C)[C@H]4OC(=O)c1ccc[nH]1 (stereo partly drawn) [Example 26, (3R,4S,7S,10aR,11R,12R,13R,14R,14aS,14bS,E)-14-hydroxy-4-((R)-1-(((3-hydroxypropoxy)carbonyl)oxy)ethyl)-7-methoxy-1,3,13-trimethyl-6-oxo-3,4,6,7,8,8a,10a,11,12,13,14,14a-dodecahydro-11,14b-epoxynaphtho[2,1-e]oxecin-12-yl 1H-pyrrole-2-carboxylate] | 130 |  |  |  |  |  |  |  |  |  | < 9.71
CO[C@H]1C[C@H]2C=C[C@H]3[C@H]4O[C@]2(/C(C)=C/[C@@H](C)[C@@H]([C@@H](C)O)OC1=O)[C@@H]3[C@H](O)[C@@H](C)[C@@H]4N1CCCC1 [Example 161, (3R,4S,7S,8aS,10aR,11R,12S,13S,14R,14aS,14bS,E)-14-hydroxy-4-((R)-1-hydroxyethyl)-7-methoxy-1,3,13-trimethyl-12-(pyrrolidin-1-yl)-3,4,8,8a,10a,11,12,13,14,14a-decahydro-11,14b-epoxynaphtho[2,1-e]oxecin-6(7H)-one] | > 105 | 46300 | > 64 | > 64 | > 64 |  |  |  |  |  | 
CC[C@H]1OC(=O)[C@@H](OC)C[C@H]2C=C[C@H]3[C@H]4O[C@]2(/C(C)=C/[C@H]1C)[C@@H]3[C@H](O)C(C)[C@H]4C[N+](=O)[O-] (stereo partly drawn) [Example 190, (3R,4R,7S,8aS,10aR,11R,12S,14R,14aS,14bS,E)-4-ethyl-14-hydroxy-7-methoxy-1,3,13-trimethyl-12-(nitromethyl)-3,4,8,8a,10a,11,12,13,14,14a-decahydro-11,14b-epoxynaphtho[2,1-e]oxecin-6(7H)-one] | 66.7 | 6670 | 64 (≈ 142 µM) | > 64 | > 64 |  |  |  |  |  | 
CCCNC(=O)O[C@H](C)[C@H]1OC(=O)[C@@H](OC)C[C@H]2C=C[C@H]3[C@H]4O[C@]2(/C(C)=C/[C@H]1C)[C@@H]3[C@H](O)[C@@H](C)[C@H]4OC(=O)c1ccc[nH]1 [Example 2, (3R,4S,7S,8aS,10aR,11R,12R,13R,14R,14aS,14bS,E)-14-hydroxy-7-methoxy-1,3,13-trimethyl-6-oxo-4-((R)-1-((propylcarbamoyl)oxy)ethyl)-3 ,4,6,7,8,8a,10a,11,12,13,14,14a-dodecahydro-11,14b-epoxynaphtho[2,1-e]oxecin-12-yl 1H-pyrrole-2-carboxylate] | 51.6 |  |  |  |  |  |  |  |  |  | 35
CCOC(=O)O[C@H](C)[C@H]1OC(=O)[C@@H](OC)CC2C=C[C@H]3[C@H]4O[C@]2(/C(C)=C/[C@H]1C)[C@@H]3[C@H](O)[C@@H](C)[C@H]4OC(=O)c1ccc[nH]1 (stereo partly shown) [Example 29] | 76.6 | < 10.2 | 8 (≈ 13.6 µM) | > 128 | 16 (≈ 27.2 µM) |  |  |  |  |  | 
CO[C@H]1C[C@H]2C=C[C@H]3[C@H]4O[C@]2(/C(C)=C/[C@@H](C)[C@@H]([C@@H](C)OC(=O)CBr)OC1=O)[C@@H]3[C@H](O)[C@@H](C)[C@H]4OC(=O)c1ccc[nH]1 [Example 56, (3R,4S,7S,8aS,10aR,11R,12R,13R,14R,14aS,14bS,E)-4-((R)-1-(2-bromoacetoxy)ethyl)-14-hydroxy-7-methoxy-1,3,13-trimethyl-6-oxo-3,4,6,7,8,8a,10a,11,12,13,14,14a-dodecahydro-11,14b-epoxynaphtho[2,1-e]oxecin-12-yl 1H-pyrrole-2-carboxylate] | 48.7 |  |  |  |  |  |  |  |  |  | < 9.43
